In US8940722B2, “Compounds for modulation of orphan nuclear receptor RAR-related orphan receptor-gamma (RORγ, NR1F3) activity and for the treatment of chronic inflammatory and autoimmune disease” (Phenex Pharmaceuticals AG, priority 2010, dated 2015):

How the values were obtained:
[1] = biological target: T1, RORγ ligand binding domain (LBD) (Homo sapiens, UniProt P51449); assay: TR-FRET Activity Assay (RORγ-LBD / coactivator peptide interaction); type: biochemical; conditions: Table 2; read-out: RORγ activity in the TR-FRET Activity Assay (IC50 FRET), Group
T1 construct: made in house; host or cells: E. coli BL-21 (BL3), vector pDEST15
T1 sequence (P51449 269-508 limits assumed): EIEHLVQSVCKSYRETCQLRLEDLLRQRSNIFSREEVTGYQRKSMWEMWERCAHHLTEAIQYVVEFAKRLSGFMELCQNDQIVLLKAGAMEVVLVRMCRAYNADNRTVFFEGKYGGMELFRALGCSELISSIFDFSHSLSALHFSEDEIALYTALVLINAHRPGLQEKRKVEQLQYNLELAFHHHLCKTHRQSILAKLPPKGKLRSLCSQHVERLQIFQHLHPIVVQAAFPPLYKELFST
Excerpt: This method measures the ability of putative ligands to modulate the interaction between the purified bacterial expressed RORγ ligand binding domain (LBD) and synthetic N-terminally biotinylated peptides which are derived from nuclear receptor coactivator proteins such as but not limited to SRC1 (NcoA1), SRC2 (NcoA2, TIF2), SRC3 (NcoA3), PGC1α, PGC1β, CBP, GRIP1, TRAP220, RIP140.
The ligand-binding domain (LBD) of RORγ was expressed as fusion protein with GST in […] cells using the vector pDEST15. Cells were lysed by lysozyme-treatment and sonication, and the fusion proteins purified over glutathione sepharose (Pharmacia) according to the manufacturers instructions. For screening of compounds for their influence on the RORγ-peptide interaction, the LANCE technology (Perkin Elmer) was applied. This method relies on the binding dependent energy transfer from a donor to an acceptor fluorophor attached to the binding partner of interest. For ease of handling and reduction of background from compound fluorescence LANCE technology makes use of generic fluorophore labels and time resolved detection assays were done in a final volume of 25 μL in a 384 well plate, in a Tris-based buffer system (20 mM Tris-HCl pH6.8; 60 mM KCl, 1 mM DTT; 5 mM MgCl2; 35 ng/μL BSA), containing 20-60 ng/well recombinantly expressed RORγ-LBD fused to GST, 200-600 nM N-terminally biotinylated peptide, 200 ng/well Streptavidin-xIAPC conjugate (Prozyme) and 6-10 ng/well Eu W1024—antiGST (Perkin Elmer). DMSO content of the samples was kept at 1%.
After generation of the Tris-based buffer system, the potentially RORγ modulating ligands were diluted. […] The LANCE signal was detected by a Perkin Elmer EnVision™ Multilabel Counter. The results were visualized by plotting the ratio between the emitted light at 665 nm and 615 nm. […] Ligands that promote the complex formation induce a concentration-dependent increase in time-resolved fluorescent signal.
To assess the antagonistic potential of the compounds, IC50 values were determined using a Ligand Sensing Assay based on Time-resolved Fluorescence Energy Transfer (TR-FRET) as described above. The normalised TR-FRET assay values, using the following equation: 1000*665 nm measurement value/615 nm measurement value, were transferred to the program GraphPad Prism to generate graphs and dose response curves using the following equation: • Equation: Sigmoidal dose-response (variable slope) Y=Bottom+(Top−Bottom)/(1+10^((Log EC50−X)*HillSlope))
This is identical to the “four parameter logistic equation”. The IC50 values are calculated using this equation.

[2] = test system: plasma cytokines in C57/bl6 mice; assay: In vivo assay for suppression of IL-17 (MOG/CFA/PTX immunisation); set-up: species or system mouse; conditions: 2×10 mg/(kg×day) i.p., MOG peptide+CFA+PTX immunised mice
Excerpt: All animal models that mimic human autoimmune disease suffer from the issue that they are long lasting, require substantial amounts of exploratory drugs and do mostly not allow for monitoring IL-17 production in a simple setup. We therefore developed an in vivo assay based on an immunisation protocol that stems from a typical mouse Experimental Autoimmune Encephalomyelitis (EAE) model. Such EAE models employ the administration of certain autoimmunogenic peptides derived from i.e. Myelin Oligodendrocyte Glycoprotein (MOG) in conjunction with co-administration of a strong immune stimulants such as Complete Freund's Adjuvans (CFA) and a booster for T-cell activation such as Pertussis Toxin (PTX) to induce an autoimmune response. IL-17 producing Th17 cells are elevated under these conditions and about 14-21 days after the immunisation macroscopic signs of CNS inflammation such as impairment of movement become visible.
This immunisation scheme, while disturbing the regular development of macroscopic EAE symptoms in mice, allows for the monitoring of proinflammatory cytokines in plasma, specifically for IL-17, IL-2 and Interferon gamma IFNγ. […]

activated human PBMCs = assay: PBMC stimulation and cytokine release assay; type: cell-based
Procedure: Cryopreserved human PBMCs were purchased from Cellular Technology Ltd. thawed and counted as outlined in the supplier's protocol using CTL-anti-Aggregate-Wash-Supplement. Cells were washed and plated in CTL's serum free medium to −10^5 cells/well in anti-human CD3 coated 96 well T-cell activation plates (BD; Cat. No: 354725) together with anti-human CD28 antibody (BD; Cat. No: 555725) to a final concentration of 2 μg/mL. Samples were either treated with vehicle (0.1%) or small chemical molecules of the indicated concentrations.
For end point determination of cytokine production the cells were incubated for 72 h at 37° C. and 5% CO2. Supernatants were harvested and stored frozen at −80° C. until further processing. The cells were assayed for viability by incubation for 15 min with fluoresceindiacetate (5 μg/mL in PBS) and subsequent measurement of fluorescein (485 nm/535 nm).
Cytokine concentrations in the supernatants were determined in bead-based multiplex ELISA assays using Procarta Cytokine Assay Kits (Panomics) following the manufacturers instructions. The samples were read in a Luminex100 device and analysed with the IS Luminex 2.3 Software using a 5 parameter non-linear regression curve-fitting model.

SMILES	IC50 [1]	further results
O=S(=O)(c1cccc2cccnc12)N1Cc2ccccc2COCC1Cc1ccccc1 (centres unmarked) [1/8]	< 500 nM	plasma IFNγ levels (FIG. 1) [2]: increase; plasma IL-17 levels (FIG. 1) [2]: nearly completely reduced
O=S(=O)(c1cccc2cccnc12)N1Cc2ccccc2COC[C@H]1COCC1CCC1 [16/3]	500 to 2000 nM	effects on Th17-cytokine production in activated human PBMCs (FIG. 2) (activated human PBMCs): selective inhibitory effects
COc1ccccc1S(=O)(=O)N1Cc2ccccc2COCC1Cc1ccccc1 (centres unmarked) [Preparative Example 1, 4-Benzyl-5-(2-methoxyphenylsulfonyl)-3,4,5,6-tetrahydro-1H-benzo[f][1,4]-oxazocine]	< 500 nM	effects on Th17-cytokine production in activated human PBMCs (FIG. 2) (activated human PBMCs): selective inhibitory effects
O=S(=O)(c1cccc2cccnc12)N1Cc2ccccc2COC[C@H]1COCC1CC1 [16/4]	500 to 2000 nM	effects on Th17-cytokine production in activated human PBMCs (FIG. 2) (activated human PBMCs): selective inhibitory effects
COc1ccccc1S(=O)(=O)N1Cc2ccc(F)cc2COCC1Cc1ccccc1 (centres unmarked) [1/35]	> 2000 nM	
O=S(=O)(c1cccc2cccnc12)N1Cc2ccccc2COC[C@H]1CC1CC1 [Preparative Example 20, (R)-4-(Cyclopropylmethyl)-5-(quinolin-8-ylsulfonyl)-3,4,5,6-tetrahydro-1H-benzo[f][1,4]oxazocine]	< 500 nM	
O=S(=O)(c1cccc2nonc12)N1Cc2ccccc2COCC1Cc1ccccc1 (centres unmarked) [1/10]	< 500 nM	
COc1ccccc1S(=O)(=O)N1Cc2c(C#N)cccc2COCC1Cc1ccccc1 (centres unmarked) [5/2]	> 2000 nM	
Cc1ccc(Cl)cc1S(=O)(=O)N1Cc2ccccc2COCC1Cc1ccccc1 (centres unmarked) [1/20]	500 to 2000 nM	
N#Cc1ccc(Cl)cc1S(=O)(=O)N1Cc2ccccc2COCC1Cc1ccccc1 (centres unmarked) [1/19]	< 500 nM	
O=S(=O)(c1ccccc1OC(F)(F)F)N1Cc2nccn2CCC[C@H]1Cc1ccccc1 [31/2]	500 to 2000 nM	
COc1ccccc1S(=O)(=O)N1Cc2ccccc2COCC1Cc1cccc(-c2cncnc2)c1 (centres unmarked) [5/5]	> 2000 nM	
Cc1ccc2nsnc2c1S(=O)(=O)N1Cc2ccccc2COCC1Cc1ccccc1 (centres unmarked) [1/13]	500 to 2000 nM	
Cc1c(F)cccc1S(=O)(=O)N1Cc2ccccc2COCC1Cc1ccccc1 (centres unmarked) [1/17]	500 to 2000 nM	
COc1ccc(F)cc1S(=O)(=O)N1Cc2ccccc2COCC1Cc1ccccc1 (centres unmarked) [1/5]	< 500 nM	
O=S(=O)(c1cccc2cccnc12)N1Cc2ccccc2COC[C@H]1COCc1ccccc1 [16/1]	500 to 2000 nM	
COc1ccccc1S(=O)(=O)N1Cc2c(Br)cccc2COCC1Cc1ccccc1 (centres unmarked) [3/1]	> 2000 nM	
O=S(=O)(c1cccc2c1OCC2)N1Cc2ccccc2COCC1Cc1ccccc1 (centres unmarked) [1/9]	< 500 nM	
Cc1nc(S(=O)(=O)N2Cc3ccccc3COCC2Cc2ccccc2)cn1C (centres unmarked) [1/30]	> 2000 nM	
O=S(=O)(c1cccc2cccnc12)N1Cc2ccccc2COCC1CC1CCCC1 (centres unmarked) [1/44]	< 500 nM	effects on Th17-cytokine production in activated human PBMCs (FIG. 2) (activated human PBMCs): selective inhibitory effects
